US8952024B2, “Herbicidal pyrimidone derivatives” (E I du Pont de Nemours and Company, priority 2009, dated 2015)

Tests used:
Test in all cases: Test D pre-/postemergence plant response
Assay type in all cases: in vivo
[1] = test system: purslane (common purslane, Portulaca oleracea)
From the text: (§1) Seeds of plant species selected from bermudagrass (Cynodon dactylon), Surinam grass (Brachiaria decumbens), large crabgrass (Digitaria sanguinalis), green foxtail (Setaria viridis), goosegrass (Eleusine indica), johnsongrass (Sorghum halepense), kochia (Kochia scoparia), morningglory (pitted morningglory, Ipomoea lacunosa), nutsedge (purple nutsedge, Cyperus rotundus), ragweed (common ragweed, Ambrosia elatior), black mustard (Brassica nigra), guineagrass (Panicum maximum), dallisgrass (Paspalum dilatatum), barnyardgrass (Echinochloa crus-galli), sandbur (southern sandbur, Cenchrus echinatus), sowthistle (common sowthistle, Sonchus oleraceous), prickly sida (Sida spinosa), Italian ryegrass (Lolium multiflorum), purslane (common purslane, Portulaca oleracea), signalgrass (broadleaf signalgrass, Brachiaria platyphylla), groundsel (common groundsel, Senecio vulgaris), chickweed (common chickweed, Stellaria media), dayflower (Virginia (VA) dayflower, Commelina virginica), bluegrass (annual bluegrass, Poa annua), naked crabgrass (Digitaria nuda), itchgrass (Rottboellia cochinchinensis), quackgrass (Elytrigia repens), field bindweed (Convolvulus arvensis), spanishneedles (Bidens bipinnata), mallow (common mallow, Malva sylvestris) and Russian thistle (Salsola kali), were planted into a blend of loam soil and sand and treated preemergence with test chemicals formulated in a non-phytotoxic solvent mixture which included a surfactant. At the same time, plants from these weed species were treated with postemergence applications of the test chemicals formulated in the same manner. Plants ranged in height from 2 to 18 cm (1- to 4-leaf stage) for postemergence treatments.
(§2) Treated plants and controls were maintained in a greenhouse for 14 to 21 days, after which time all species were visually evaluated and compared to controls. Plant response ratings, summarized in Table D, are based on a scale of 0 to 100 where 0 is no effect and 100 is complete control. A dash (-) response means no test result.

[2] = test system: sandbur (southern sandbur, Cenchrus echinatus)
From the text: as §1, §2

[3] = test system: nutsedge (purple nutsedge, Cyperus rotundus)
From the text: as §1, §2

[4] = test system: Russian thistle (Salsola kali); conditions: Preemergence, 16 g ai/ha; scale 0 to 100, 0 no effect, 100 complete control
From the text: as §1, §2

[5] = test system: signalgrass (broadleaf signalgrass, Brachiaria platyphylla)
From the text: as §1, §2

[6] = test system: bluegrass (annual bluegrass, Poa annua)
From the text: as §1, §2

[7] = test system: Italian ryegrass (Lolium multiflorum)
From the text: as §1, §2

[8] = test system: ragweed (common ragweed, Ambrosia elatior)
From the text: as §1, §2

[9] = test system: quackgrass (Elytrigia repens)
From the text: as §1, §2

[10] = test system: morningglory (pitted morningglory, Ipomoea lacunosa)
From the text: as §1, §2

[11] = test system: chickweed (common chickweed, Stellaria media)
From the text: as §1, §2

[12] = test system: field bindweed (Convolvulus arvensis)
From the text: as §1, §2

[13] = test system: large crabgrass (Digitaria sanguinalis)
From the text: as §1, §2

[14] = test system: spanishneedles (Bidens bipinnata)
From the text: as §1, §2

[15] = test system: prickly sida (Sida spinosa)
From the text: as §1, §2

[16] = test system: black mustard (Brassica nigra)
From the text: as §1, §2

[17] = Postemergence, 16 g ai/ha, scale 0 to 100
[18] = Postemergence, 31 g ai/ha, scale 0 to 100
[19] = Postemergence, 125 g ai/ha, scale 0 to 100 (0 no effect, 100 complete control)
[20] = Postemergence, 62 g ai/ha, scale 0 to 100 (0 no effect, 100 complete control)
[21] = Preemergence, 16 g ai/ha, scale 0 to 100, 0 no effect, 100 complete control
[22] = Preemergence, 31 g ai/ha, scale 0 to 100 (0 no effect, 100 complete control)
[23] = Preemergence, 62 g ai/ha, scale 0 to 100
[24] = Preemergence, 125 g ai/ha, scale 0 to 100
[25] = Postemergence, 31 g ai/ha, scale 0 to 100 (0 no effect, 100 complete control)

Cc1ccc(Cl)cc1-n1c(-c2ccccc2)ncc(C(=O)C2=C(O)CCCC2=O)c1=O [Compound 52]
Plant response rating, Purslane [1, 17]: 65 | Plant response rating, Purslane [1, 18]: 65 | Plant response rating, Purslane [1, 19]: 75 | Plant response rating, Purslane [1, 20]: 65 | Plant response rating, Purslane [1, 21]: 0 | Plant response rating, Purslane [1, 22]: 60 | Plant response rating, Purslane [1, 23]: 90 | Plant response rating, Purslane [1, 24]: 100 | Plant response rating, Sandbur [2, 17]: 65 | Plant response rating, Sandbur [2, 18]: 65 | Plant response rating, Sandbur [2, 19]: 80 | Plant response rating, Sandbur [2, 20]: 75 | Plant response rating, Sandbur [2, 21]: 0 | Plant response rating, Sandbur [2, 22]: 0 | Plant response rating, Sandbur [2, 24]: 98 | Plant response rating, Nutsedge, Purple [3, 17]: 0 | Plant response rating, Nutsedge, Purple [3, 18]: 20 | Plant response rating, Nutsedge, Purple [3, 19]: 40 | Plant response rating, Nutsedge, Purple [3, 20]: 35 | Plant response rating, Nutsedge, Purple [3, 21]: 0 | Plant response rating, Nutsedge, Purple [3, 22]: 5 | Plant response rating, Nutsedge, Purple [3, 23]: 30 | Plant response rating, Nutsedge, Purple [3, 24]: 40 | Plant response rating, Russian Thistle [4]: 0 | Plant response rating, Signalgrass [5, 17]: 50 | Plant response rating, Signalgrass [5, 18]: 60 | Plant response rating, Signalgrass [5, 19]: 90 | Plant response rating, Signalgrass [5, 20]: 80 | Plant response rating, Signalgrass [5, 21]: 0 | Plant response rating, Signalgrass [5, 22]: 0 | Plant response rating, Signalgrass [5, 24]: 90 | Plant response rating, Bluegrass [6, 17]: 15 | Plant response rating, Bluegrass [6, 25]: 25 | Plant response rating, Bluegrass [6, 19]: 35 | Plant response rating, Bluegrass [6, 20]: 35 | Plant response rating, Bluegrass [6, 21]: 0 | Plant response rating, Bluegrass [6, 22]: 0 | Plant response rating, Bluegrass [6, 23]: 0 | Plant response rating, Bluegrass [6, 24]: 20 | Plant response rating, Ryegrass, Italian [7, 17]: 0 | Plant response rating, Ryegrass, Italian [7, 18]: 0 | Plant response rating, Ryegrass, Italian [7, 19]: 35 | Plant response rating, Ryegrass, Italian [7, 20]: 15 | Plant response rating, Ryegrass, Italian [7, 21]: 0 | Plant response rating, Ryegrass, Italian [7, 22]: 0 | Plant response rating, Ryegrass, Italian [7, 24]: 15 | Plant response rating, Ragweed [8, 17]: 90 | Plant response rating, Ragweed [8, 18]: 95 | Plant response rating, Ragweed [8, 19]: 95 | Plant response rating, Ragweed [8, 20]: 95 | Plant response rating, Ragweed [8, 21]: 30 | Plant response rating, Ragweed [8, 22]: 50 | Plant response rating, Ragweed [8, 24]: 98 | Plant response rating, Quackgrass [9, 17]: 5 | Plant response rating, Quackgrass [9, 18]: 10 | Plant response rating, Quackgrass [9, 19]: 20 | Plant response rating, Quackgrass [9, 20]: 15 | Plant response rating, Quackgrass [9, 21]: 0 | Plant response rating, Quackgrass [9, 22]: 0 | Plant response rating, Quackgrass [9, 24]: 20 | Plant response rating, Morningglory [10, 17]: 50 | Plant response rating, Morningglory [10, 18]: 65 | Plant response rating, Morningglory [10, 19]: 70 | Plant response rating, Morningglory [10, 20]: 70 | Plant response rating, Morningglory [10, 21]: 0 | Plant response rating, Morningglory [10, 22]: 0 | Plant response rating, Morningglory [10, 23]: 0 | Plant response rating, Morningglory [10, 24]: 100 | Plant response rating, Chickweed [11, 17]: 75 | Plant response rating, Chickweed [11, 18]: 90 | Plant response rating, Chickweed [11, 19]: 100 | Plant response rating, Chickweed [11, 20]: 98 | Plant response rating, Chickweed [11, 24]: 95 | Plant response rating, Field Bindweed [12, 17]: 50 | Plant response rating, Field Bindweed [12, 18]: 70 | Plant response rating, Field Bindweed [12, 19]: 70 | Plant response rating, Field Bindweed [12, 20]: 70 | Plant response rating, Field Bindweed [12, 21]: 20 | Plant response rating, Field Bindweed [12, 23]: 20 | Plant response rating, Field Bindweed [12, 24]: 50 | Plant response rating, Crabgrass, Large [13, 17]: 65 | Plant response rating, Crabgrass, Large [13, 18]: 70 | Plant response rating, Crabgrass, Large [13, 19]: 70 | Plant response rating, Crabgrass, Large [13, 20]: 70 | Plant response rating, Crabgrass, Large [13, 21]: 0 | Plant response rating, Crabgrass, Large [13, 22]: 20 | Plant response rating, Crabgrass, Large [13, 23]: 75 | Plant response rating, Crabgrass, Large [13, 24]: 98 | Plant response rating, Spanishneedles [14, 17]: 75 | Plant response rating, Spanishneedles [14, 18]: 75 | Plant response rating, Spanishneedles [14, 19]: 80 | Plant response rating, Spanishneedles [14, 20]: 80 | Plant response rating, Spanishneedles [14, 21]: 35 | Plant response rating, Spanishneedles [14, 22]: 70 | Plant response rating, Spanishneedles [14, 24]: 98 | Plant response rating, Prickly Sida [15, 17]: 65 | Plant response rating, Prickly Sida [15, 18]: 65 | Plant response rating, Prickly Sida [15, 19]: 90 | Plant response rating, Prickly Sida [15, 20]: 80 | Plant response rating, Prickly Sida [15, 21]: 0 | Plant response rating, Prickly Sida [15, 22]: 0 | Plant response rating, Prickly Sida [15, 23]: 50 | Plant response rating, Prickly Sida [15, 24]: 100 | Plant response rating, Black Mustard [16, 17]: 65 | Plant response rating, Black Mustard [16, 25]: 90 | Plant response rating, Black Mustard [16, 19]: 98 | Plant response rating, Black Mustard [16, 20]: 98 | Plant response rating, Black Mustard [16, 21]: 0 | Plant response rating, Black Mustard [16, 22]: 20 | Plant response rating, Black Mustard [16, 23]: 80 | Plant response rating, Black Mustard [16, 24]: 100
